What was measured:
Type in all cases: cell-based, human
[1] = test system: hyaluronic acid synthase 2 (HAS 2) gene; experiment: Quantitative RT-PCR of HAS 2 gene expression in HaCaT cells; settings: for Gene expression level (fold) HAS 2: 24 hours, relative mRNA level vs ethanol negative control as 1
Method: (§1) HaCaT cells were cultured in Dulbecco's modified Eagle's medium (DMEM, GIBCO 1210-0038) containing 10% fetal bovine serum. 1×10^6 cells were placed in a […] flask and cultured for 24 hours. Then, after treating with DMEM not containing fetal bovine serum and culturing for 24 hours, the cells were treated with dehydroabietic acid in a medium not containing fetal bovine serum for 24 hours. Then, after harvesting the cells and washing with cooled phosphate-buffered saline (PBS), total RNA was extracted by adding 1 mL of TRIzolTM reagent (Life Technologies, Inc.). Then, quantitative reverse transcriptase PCR was conducted. The primer sequences of PPARα. TGase 1, filaggrin and HAS 2 used to conduct PCR are described in Table 2. After adding 4 μg of total RNA to 25 μL of a reverse transcription buffer containing 50 mM Tris-HCl (pH 8.3), 75 mM KCl, 3 mM MgCl^2, 0.1 M DTT, 10 mM dNTP and 40 units/μL RNase inhibitor, 0.5 μg/μL oligo (dT)16 primer and 200 units of SuperScript II (GIBCO BRL) were added and incubation was conducted at 42° C. for 1 hour. Then, after mixing 2.5 μL of the reverse transcription solution with a 50 µL of a PCR buffer containing AmpliTaq DNA polymerase (0.04U, Perkin Elmer, Shelton, CT), 50 mM Tris (pH 8.3), 0.25 mg/mL bovine serum albumin, 3 mM MgCl2, 0.25 mM dNTPs and a 1/50,000 diluted solution of SYBR Green I (Molecular Probes, Eugene, OR), 10 μM of primers were added and PCR was conducted for 30 cycles of 30 seconds at 94° C., 30 seconds at 53°° C. and 1 minute at 72° C. Relative mRNA level was analyzed by measuring the change in the fluorescence of SYBR Green I using the ICycler software. WY14643, which is a PPARα ligand, was used as a positive control group. The relative mRNA level was represented relative to an ethanol-treated negative control group as 1. […] WY14643 is a PPARα ligand reported to induce keratinocyte differentiation and strengthen skin barrier.

[2] = test system: transglutaminase 1 (TGase 1) gene; experiment: Quantitative RT-PCR of TGase 1 gene expression in HaCaT cells; settings: for Gene expression level (fold) TGase1: 24 hours, relative mRNA level vs ethanol negative control as 1
Method: as §1

filaggrin gene = experiment: Quantitative RT-PCR of filaggrin gene expression in HaCaT cells; settings: for Gene expression level (fold) Filaggrin: 24 hours, relative mRNA level vs ethanol negative control as 1
Method: as §1

PPARα = target: T1, PPARα (Mus musculus, UniProt P23204); experiment: PPARα activation, PPRE-luciferase reporter assay in transfected HaCaT cells; settings: 10 μM; for PPARα activation (%): 24 hours, luciferase activity relative to ethanol negative control (100)
T1 construct: expressed in transfected cells; host or cells: HaCaT (human keratinocytes), transiently transfected
T1 sequence (P23204 1-468): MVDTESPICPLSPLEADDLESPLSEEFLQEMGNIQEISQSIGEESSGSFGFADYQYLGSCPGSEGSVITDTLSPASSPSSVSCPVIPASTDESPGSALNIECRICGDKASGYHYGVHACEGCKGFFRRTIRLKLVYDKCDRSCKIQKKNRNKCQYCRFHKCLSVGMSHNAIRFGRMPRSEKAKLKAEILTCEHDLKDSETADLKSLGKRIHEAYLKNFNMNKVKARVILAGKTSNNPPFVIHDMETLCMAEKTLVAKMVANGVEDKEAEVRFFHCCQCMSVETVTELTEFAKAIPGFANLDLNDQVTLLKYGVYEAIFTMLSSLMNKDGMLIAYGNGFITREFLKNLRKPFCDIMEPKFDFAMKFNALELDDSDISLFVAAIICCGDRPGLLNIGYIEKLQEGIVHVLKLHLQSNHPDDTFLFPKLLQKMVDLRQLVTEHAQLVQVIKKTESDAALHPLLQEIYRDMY
From the text: HaCaT cells, which are human keratinocytes, were subcultured in DMEM containing 10% fetal bovine serum. A phenol red-free medium was used to avoid the effect of phenol red on estrogen. The following plasmids were used: a plasmid having the PPARα gene downstream of a universal promoter which is expressed in general culture conditions; a plasmid having a PPAR response element (PPRE) activated by binding with ligand-bound PPAR as a promoter and a firefly luciferase gene reporter downstream of the promoter; and a reference plasmid having a β-galactosidase gene bound to a universal promoter [Kliewer, S. A., Forman, B. M., Blumberg, B., Ong, […]., Evans, R. M., Differential expression and activation of a family of murine peroxisome proliferator-activated receptors, Proc. Natl. Acad. Sci. USA, 91 (1994) 7355-7359.]. The HaCaT cells were seeded onto a 24-well plate at a density of 5×10^4 cells/well, cultured for 24 hours, and then transiently transfected with the plasmid genes. After 24 hours of culturing, followed by washing with phosphate-buffered saline (PBS), the ells were treated with dehydroabietic acid of Chemical Formula 1 purchased from Ramidus AB or WY14643, which is a PPARα ligand, as a positive control group at 10 μM. WY14643 is reported as a PPARα ligand which induces keratinocyte differentiation and strengthens skin barrier. A negative control group was treated with ethanol. After 24 hours of culturing, followed by washing with PBS, the cells were harvested and luciferase activity was measured. […] The result for each treatment group was represented relative to that of the negative control group.

PPARα gene = experiment: Quantitative RT-PCR of PPARα gene expression in HaCaT cells; settings: for Gene expression level (fold) PPARα: 24 hours, relative mRNA level vs ethanol negative control as 1
Method: as §1

SMILES	Gene expression level (fold) HAS 2 ([1]; 1 μM) [fold]	Gene expression level (fold) HAS 2 ([1]; 10 μM) [fold]	Expression of the hyaluronic acid synthase 2 (HAS 2) gene, result in words ([1]; treatment for 24 hours)	Gene expression level (fold) TGase1 ([2]; 1 μM) [fold]	Gene expression level (fold) TGase1 ([2]; 10 μM) [fold]	Expression of the transglutaminase 1 (TGase 1) gene, result in words ([2]; treatment for 24 hours)	Gene expression level (fold) Filaggrin (filaggrin gene; 1 μM) [fold]	Gene expression level (fold) Filaggrin (filaggrin gene; 10 μM) [fold]	Expression of the filaggrin gene, result in words (filaggrin gene; treatment for 24 hours)	PPARα activation (%) (PPARα)	PPARα activation (luciferase activity), result in words (PPARα; compared with WY14643 positive control)	Gene expression level (fold) PPARα (PPARα gene; 1 μM) [fold]	Gene expression level (fold) PPARα (PPARα gene; 10 μM) [fold]	Expression of the PPARα gene, result in words (PPARα gene; treatment for 24 hours)
CC(C)c1ccc2c(c1)CC[C@H]1[C@](C)(C(=O)O)CCC[C@]21C [Dehydroabietic acid, dehydroabietic acid]	12.4	40.15	significantly increased	2.58	5.94	significantly increased	2.31	3.34	significantly increased	291.5	induced PPARα activation	2.65	6.16	significantly increased
Cc1cccc(Nc2cc(Cl)nc(SCC(=O)O)n2)c1C [WY14643, reference compound]	9.64	35.93	–	2.13	4.98	–	1.86	3.12	–	286.9	–	2.54	5.96	–

Source: US20250049664A1, “SKIN EXTERNAL APPLICATION COMPOSITION FOR SKIN BARRIER STRENGTHENING OR SKIN MOISTURIZING CONTAINING DEHYDROABIETIC ACID” (AMOREPACIFIC CORPORATION, priority 2018, published 2025)
